Source: patent publication US20240341171A1 (Semiconductor Energy Laboratory Co., Ltd., priority 2021, published 2024)

How the values were obtained:
[1] = Solubility test of PTCDI compounds (1 mg, solvent added in 1 mL steps, ultrasonic treatment, visual check); format: physicochemical; settings: for solubility: in chloroform and tetrahydrofuran, judged visually; for solvent [mL] CHCl3: volume of chloroform needed to dissolve 1 mg of compound; for solvent [mL] THF: volume of tetrahydrofuran needed to dissolve 1 mg of compound
Experimental: In this example, a solubility test for a perylenetetracarboxylic diimide (PTCDI) compounds were performed.
First, 1 mg of each of the PTCDJ compounds represented by (a) to (d) were weighed out and added to transparent containers. Next, (1) 1 mL of a solvent was added, and then ultrasonic treatment was performed for 1 minute. After that, (2) whether the PTCDI compounds were dissolved in the solvents was checked visually.
In each PTCDI compound, aforementioned (1) and (2) were repeated until the PTCDI compounds were dissolved in the solvents. When a solution is colored in yellowish-orange and solids of materials disappear, the PTCDI compounds are regarded to be dissolved.

[2] = Calculation of solubility parameter (SP value) by molecular dynamics (LAMMPS); settings: calculated SP value against reference SP value of chloroform (approx. 9.4)
Source text: The solubility parameter (SP value) δ can be calculated by Formula (1) shown in the following Formula 1 and Formula (2) shown in the following Formula 2, using a cohesive energy density obtained by a molecular dynamics (MD) method using the interaction between molecules in the molecular assembly.
Note that in the above Formula 1 and Formula 2, NA represents Avogadro's constant, V represents a molar volume of a molecular assembly, Ecoh represents a cohesive energy, Eassembly/number of molecules represents an energy per molecule in an assembly, and Eisolated molecule represents energy of each molecule that constitutes the assembly.
As the energy of the assembly (Eassembly) and the energy of each molecule that constitutes the assembly (Eisolated molecule), a three-dimensional coordinate of a molecule that is calculated using LAMMPS, which is an open source software, can be used.
Specifically, an initial state of the molecular assembly in which molecules are arranged at random is generated, using a single material system of molecules whose SP value σ is intended to be calculated. Next, the energy Eassembly of the assembly is calculated by performing a MD calculation using an NTP ensemble until when the energy and the volume go into an equilibrium state. On the other hand, the energy Eisolated molecule of each molecule that constitutes the assembly is calculated in the following manner: the volume and the shape of each molecule that constitutes the assembly are fixed and sampling is performed by the MD calculation using NVT ensemble. Next, statistical processing and substitution into Formula 1 and Formula 2 are performed, whereby the SP value δ is calculated.
First, the energy Eassembly of the assembly of the PTCDI derivatives is calculated. Specifically, an initial state (also referred to as a liquid model) of the molecular assembly which consists of a single system of 100 PTCDI derivatives (shown above as (a) to (i)) arranged at random, is generated. Next, the MD calculation using the NTP ensemble is performed until the energy and the volume go into an equilibrium state. In the MD calculation, samplings of Step 1 under high-temperature and pressure-rising conditions, Step 2 under high-temperature and pressure-rising conditions, Step 3 under high-temperature and high-pressure conditions, Step 4 under high-temperature and normal-pressure conditions, and Step 5 under normal-temperature and normal-pressure conditions are sequentially performed. The energy Eassembly/number of molecules per molecule of the PTCDI derivative is calculated by dividing the calculated value by 100.
The energy Eassembly of the assembly of the solvent is calculated.
Next, the MD calculation using the NTP ensemble is performed until the energy and the volume go into an equilibrium state. […]

[3] = reference value from a website; cited from earlier work

Row | SMILES | solubility [1] | solvent [mL] CHCl3 [1] [mL] | solvent [mL] THF [1] [mL] | difference in SP value σ CHCl3 [2] | SP value [3]
1 | CCCCC(CC)CN1C(=O)c2ccc3c4ccc5c6c(ccc(c7ccc(c2c37)C1=O)c64)C(=O)N(CC(CC)CCCC)C5=O (centres unmarked) | improved as compared with that of PTCDI-C8 | 1 | 16 | 1.0 | 
2 | CN1C(=O)c2ccc3c4ccc5c6c(ccc(c7ccc(c2c37)C1=O)c64)C(=O)N(C)C5=O | extremely poor | >100 | >100 | 2.9 | 
3 | CCCCCCCCN1C(=O)c2ccc3c4ccc5c6c(ccc(c7ccc(c2c37)C1=O)c64)C(=O)N(CCCCCCCC)C5=O | improved as compared with that of Me-PTCDI | 55 | >100 | 1.3 | 
4 | CCC(CC)N1C(=O)c2ccc3c4ccc5c6c(ccc(c7ccc(c2c37)C1=O)c64)C(=O)N(C(CC)CC)C5=O [(d) EtPr-PTCDI, 2,9-di(pentan-3-yl)anthra[2,1,9-def:6,5,10-d′e′f]diisoquinoline-1,3,8,10(2H,9H)-tetraone] | extremely favorable | 1 | 1 | 0.9 | 
5 | ClC(Cl)Cl [chloroform] |  |  |  |  | approximately 9.4 (cal/cm^3)^1/2
